Source: patent US11542492B2 (Celgene CAR LLC, priority 2009, dated 2023)

Legend:
p110β/p85α (PI3Kβ) = target: T1, p110β/p85α (PI3Kβ) (Homo sapiens, UniProt P42338); test: HTRF assay, p110β/p85α; type: biochemical; settings: read-out: PI3Kβ HTRF IC50 Inhibition Designation
T1 construct: purchased Millipore 14-603
Description: The mechanics of the assay platform are best described by the vendor (Millipore, Billerica, Mass.) on their website at the following URL: http://www.millipore.com/coa/tech1/74jt4z.
Briefly, Stop solution (Stop A, #33-007 and Stop B, #33-009; 3:1 ratio) and Detection Mix (DMC, #33-015 with DMA, #33-011 and DMB, #33-013; 18:1:1 ratio) were prepared as recommended by the manufacturer ˜2 hrs prior to use. […] Lipid kinase reactions were started with the addition of 5 μL of ATP solution, mixed for 15 sec on a rotary plate shaker and incubated for 15-30 minutes at 25° C. Next, reactions were stopped with a 5 μL addition of Stop solution followed by a 5 μL volume of Detection Mix. […] At the conclusion of each assay, the HTRF ratio from fluorescence emission values for each well was calculated and % Inhibition determined from averaged controls wells. % Inhibition values for each compound re then plotted against inhibitor concentration to estimate IC50 from log [Inhibitor] vs Response, Variable Slope model in GraphPad Prism from GraphPad Software (San Diego, Calif.).

p120γ (PI3Kγ) = target: T2, p120γ (PI3Kγ) (Homo sapiens, UniProt P48736); test: HTRF assay, p120γ; type: biochemical; settings: PI3Kγ; read-out: PI3Kγ HTRF IC50 Inhibition Designation
T2 construct: purchased BPS Bioscience 40625
T2 sequence (P48736 whole entry): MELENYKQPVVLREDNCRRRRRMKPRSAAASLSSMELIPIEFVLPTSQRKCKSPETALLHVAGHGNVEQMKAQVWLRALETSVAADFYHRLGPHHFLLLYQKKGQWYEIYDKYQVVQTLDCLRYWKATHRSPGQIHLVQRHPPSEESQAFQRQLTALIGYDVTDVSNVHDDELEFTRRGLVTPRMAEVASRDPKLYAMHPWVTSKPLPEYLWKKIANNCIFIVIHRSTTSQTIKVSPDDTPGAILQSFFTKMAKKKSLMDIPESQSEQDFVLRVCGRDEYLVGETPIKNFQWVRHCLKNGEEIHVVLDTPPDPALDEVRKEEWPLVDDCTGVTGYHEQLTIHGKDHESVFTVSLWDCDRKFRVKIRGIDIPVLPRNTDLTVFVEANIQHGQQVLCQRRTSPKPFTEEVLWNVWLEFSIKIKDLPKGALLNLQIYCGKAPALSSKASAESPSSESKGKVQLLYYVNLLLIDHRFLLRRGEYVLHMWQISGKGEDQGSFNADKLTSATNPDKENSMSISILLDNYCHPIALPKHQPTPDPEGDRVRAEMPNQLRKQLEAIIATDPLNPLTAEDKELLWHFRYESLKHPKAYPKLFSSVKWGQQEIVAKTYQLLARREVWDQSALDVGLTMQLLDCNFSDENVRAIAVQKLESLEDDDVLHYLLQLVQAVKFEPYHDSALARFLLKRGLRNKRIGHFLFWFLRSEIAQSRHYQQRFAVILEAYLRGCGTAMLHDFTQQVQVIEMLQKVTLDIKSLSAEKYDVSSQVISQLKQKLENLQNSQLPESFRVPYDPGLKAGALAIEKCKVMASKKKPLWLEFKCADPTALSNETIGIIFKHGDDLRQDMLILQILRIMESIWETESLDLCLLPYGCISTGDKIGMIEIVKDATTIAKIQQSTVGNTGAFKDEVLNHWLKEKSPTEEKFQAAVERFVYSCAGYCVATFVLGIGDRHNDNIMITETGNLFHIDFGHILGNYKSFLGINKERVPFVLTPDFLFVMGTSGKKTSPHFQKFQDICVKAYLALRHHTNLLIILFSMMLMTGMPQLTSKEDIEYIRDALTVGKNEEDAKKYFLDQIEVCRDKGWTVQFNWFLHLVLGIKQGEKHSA
Source text: The protocol below describes an end-point, competition-binding HTRF assay used to measure inherent potency of test compounds against active p110α/p85α, p110β/p85α, p120γ enzymes. The mechanics of the assay platform are best described by the vendor (Millipore, Billerica, Mass.) on their website at the following URL: http://www.millipore.com/coa/tech1/74jt4z.
Briefly, Stop solution (Stop A, #33-007 and Stop B, #33-009; 3:1 ratio) and Detection Mix (DMC, #33-015 with DMA, #33-011 and DMB, #33-013; 18:1:1 ratio) were prepared as recommended by the manufacturer ˜2 hrs prior to use. Additionally, 1× reaction buffer (4× buffer stock #33-003), a 1.4× stock of enzyme from BPS Bioscience (San Diego, Ca) or Millipore (Billerica, Mass.) with di-C8-PIP2 lipid substrate (#33-005), and a 4×ATP solution (#A7699) Sigma/Aldrich (St. Louis, Mo.) were prepared in 1×reaction buffer. 15 μL of enzyme and lipid substrate mix were pre-incubated in a Corning (#3573) 384-well, black, non-treated microtiter plate (Corning, N.Y.) for 30 min at 25° C. with a 0.5 μL volume of 50% DMSO and serially diluted compounds prepared in 50%-75% DMSO. Lipid kinase reactions were started with the addition of 5 μL of ATP solution, mixed for 15 sec on a rotary plate shaker and incubated for 15-30 minutes at 25° C. Next, reactions were stopped with a 5 μL addition of Stop solution followed by a 5 μL volume of Detection Mix. Stopped reactions were equilibrated for 1 and 18 hrs at room temperature and then read in a Synergy4 plate reader from BioTek (Winooski, Vt.) at λex330-80/λem620-35 and λem665-7.5. At the conclusion of each assay, the HTRF ratio from fluorescence emission values for each well was calculated and % Inhibition determined from averaged controls wells. % Inhibition values for each compound re then plotted against inhibitor concentration to estimate IC50 from log [Inhibitor] vs Response, Variable Slope model in GraphPad Prism from GraphPad Software (San Diego, Calif.).
Reagents Used in Optimized Protocol: • [p120γ]=1-4 nM, [ATP]=50 μM, [di-C8-PIP2]=10 μM • (40625; BPS Bioscience)

T1 sequence (P42338 whole entry): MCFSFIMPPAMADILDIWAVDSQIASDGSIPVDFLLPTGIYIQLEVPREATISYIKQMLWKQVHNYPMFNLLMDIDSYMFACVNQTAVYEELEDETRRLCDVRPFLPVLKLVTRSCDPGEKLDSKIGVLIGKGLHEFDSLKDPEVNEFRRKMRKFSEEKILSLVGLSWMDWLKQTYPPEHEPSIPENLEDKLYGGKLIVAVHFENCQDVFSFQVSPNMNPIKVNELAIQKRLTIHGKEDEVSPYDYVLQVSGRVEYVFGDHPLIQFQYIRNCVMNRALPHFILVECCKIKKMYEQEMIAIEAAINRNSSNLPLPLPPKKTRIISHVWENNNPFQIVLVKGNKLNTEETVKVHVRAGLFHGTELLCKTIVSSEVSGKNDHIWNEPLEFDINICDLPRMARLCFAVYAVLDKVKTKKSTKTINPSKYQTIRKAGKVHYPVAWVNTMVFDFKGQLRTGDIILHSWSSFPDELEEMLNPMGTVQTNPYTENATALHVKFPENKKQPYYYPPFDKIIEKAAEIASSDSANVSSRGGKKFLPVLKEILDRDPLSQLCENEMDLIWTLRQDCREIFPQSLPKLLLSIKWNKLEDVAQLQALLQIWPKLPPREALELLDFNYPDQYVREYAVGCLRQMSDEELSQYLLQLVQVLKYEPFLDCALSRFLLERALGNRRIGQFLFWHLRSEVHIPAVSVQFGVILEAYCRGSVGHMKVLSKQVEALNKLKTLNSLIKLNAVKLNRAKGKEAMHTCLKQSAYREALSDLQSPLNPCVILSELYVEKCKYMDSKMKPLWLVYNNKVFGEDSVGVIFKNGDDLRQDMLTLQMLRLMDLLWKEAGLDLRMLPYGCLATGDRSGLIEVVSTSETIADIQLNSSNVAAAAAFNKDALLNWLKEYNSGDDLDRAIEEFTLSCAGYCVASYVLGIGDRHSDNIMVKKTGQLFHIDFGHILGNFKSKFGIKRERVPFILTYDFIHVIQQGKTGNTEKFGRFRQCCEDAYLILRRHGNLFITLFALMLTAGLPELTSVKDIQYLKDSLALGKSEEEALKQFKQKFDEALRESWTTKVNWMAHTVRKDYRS
T1 sequence (P27986 whole entry partner): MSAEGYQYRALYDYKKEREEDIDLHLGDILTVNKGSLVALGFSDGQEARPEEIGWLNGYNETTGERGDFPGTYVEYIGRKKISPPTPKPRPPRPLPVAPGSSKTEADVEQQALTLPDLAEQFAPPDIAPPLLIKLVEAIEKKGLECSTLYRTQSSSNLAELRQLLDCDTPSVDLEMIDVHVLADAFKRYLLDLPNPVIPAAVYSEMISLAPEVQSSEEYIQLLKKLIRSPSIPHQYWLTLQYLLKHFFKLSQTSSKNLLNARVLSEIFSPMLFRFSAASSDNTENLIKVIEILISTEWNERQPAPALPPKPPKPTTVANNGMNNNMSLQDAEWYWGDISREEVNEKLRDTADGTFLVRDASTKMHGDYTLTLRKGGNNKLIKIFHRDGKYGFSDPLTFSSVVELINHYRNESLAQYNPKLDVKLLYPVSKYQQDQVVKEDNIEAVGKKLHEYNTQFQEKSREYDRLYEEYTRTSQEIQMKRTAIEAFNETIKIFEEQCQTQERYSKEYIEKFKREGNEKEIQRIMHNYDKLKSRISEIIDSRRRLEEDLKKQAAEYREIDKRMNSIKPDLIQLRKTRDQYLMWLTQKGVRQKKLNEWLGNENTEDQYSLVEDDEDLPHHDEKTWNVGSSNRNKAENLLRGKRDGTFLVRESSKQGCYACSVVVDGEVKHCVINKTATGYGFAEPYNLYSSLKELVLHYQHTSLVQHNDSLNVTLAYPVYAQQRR

Compound	IC50 (p110β/p85α (PI3Kβ)) [µM]	IC50 (p120γ (PI3Kγ)) [µM]
O=C1CC[C@H](C(=O)N2CCN(Cc3cc4nc(-c5cccc6[nH]ncc56)nc(N5CCOCC5)c4s3)CC2)O1 [XXII-22]	0.1 to 1	0.1 to 1
O=C1CC[C@@H](C(=O)N2CCN(Cc3cc4nc(-c5cccc6[nH]ncc56)nc(N5CCOCC5)c4s3)CC2)O1 [XXII-23]	1 to 10	0.1 to 1
CN(Cc1cc2nc(-c3cccc(O)c3)nc(N3CCOCC3)c2s1)C(=O)CCC(=O)N1CCC1=O [XXII-24, N-((2-(3-hydroxyphenyl)-4-morpholinothieno[3,2-d]pyrimidin-6-yl)methyl)-N-methyl-4-oxo-4-(2-oxoazetidin-1-yl)butanamide]	0.1 to 1	
C/C=C/S(=O)(=O)N1CCN(Cc2cc3nc(-c4cnc(N)nc4)nc(N4CCOCC4)c3s2)CC1 [XXII-25, (E)-5-(4-morpholino-6-((4-(prop-1-enylsulfonyl)piperazin-1-yl)methyl)thieno[3,2-d]pyrimidin-2-yl)pyrimidin-2-amine]	0.1 to 1	0.01 to 0.1
CC(C)Oc1c(N2CCN(Cc3cc4nc(-c5cnc(N)nc5)nc(N5CCOCC5)c4s3)CC2)c(=O)c1=O [XXII-26, 3-(4-((2-(2-aminopyrimidin-5-yl)-4-morpholinothieno[3,2-d]pyrimidin-6-yl)methyl)piperazin-1-yl)-4-isopropoxycyclobut-3-ene-1,2-dione]	0.1 to 1	0.1 to 1
CC(C)Oc1c(NCC(=O)N2CCN(Cc3cc4nc(-c5cnc(N)nc5)nc(N5CCOCC5)c4s3)CC2)c(=O)c1=O [XXII-27, 3-(2-(4-((2-(2-aminopyrimidin-5-yl)-4-morpholinothieno[3,2-d]pyrimidin-6-yl)methyl)piperazin-1-yl)-2-oxoethylamino)-4-isopropoxycyclobut-3-ene-1,2-dione]	0.1 to 1	0.1 to 1
COC(=O)N1C(=O)CC[C@@H]1C(=O)N1CCN(Cc2cc3nc(-c4cnc(N)nc4)nc(N4CCOCC4)c3s2)CC1 [XXII-28]	0.1 to 1	0.1 to 1
COC(=O)N1C(=O)CC[C@H]1C(=O)N1CCN(Cc2cc3nc(-c4cnc(N)nc4)nc(N4CCOCC4)c3s2)CC1 [XXII-29, (S)-methyl 2-(4-((2-(2-aminopyrimidin-5-yl)-4-morpholinothieno[3,2-d]pyrimidin-6-yl)methyl)piperazine-1-carbonyl)-5-oxopyrrolidine-1-carboxylate]	0.1 to 1	0.1 to 1
Nc1ncc(-c2nc(N3CCOCC3)c3sc(CN4CCN(C(=O)C5CCSC5=O)CC4)cc3n2)cn1 (stereo not drawn) [XXII-30, 3-(4-((2-(2-aminopyrimidin-5-yl)-4-morpholinothieno[3,2-d]pyrimidin-6-yl)methyl)piperazine-1-carbonyl)dihydrothiophen-2(3H)-one]	0.1 to 1	0.01 to 0.1
Nc1ncc(-c2nc(N3CCOCC3)c3sc(CN4CCN(C(=O)C5CSC(=O)C5)CC4)cc3n2)cn1 (stereo not drawn) [XXII-31, 4-(4-((2-(2-aminopyrimidin-5-yl)-4-morpholinothieno[3,2-d]pyrimidin-6-yl)methyl)piperazine-1-carbonyl)dihydrothiophen-2(3H)-one]	0.1 to 1	0.1 to 1
Nc1ncc(-c2nc(N3CCOCC3)c3sc(CN4CCN(C(=O)C5CCC(=O)S5)CC4)cc3n2)cn1 (stereo not drawn) [XXII-32, 5-(4-((2-(2-aminopyrimidin-5-yl)-4-morpholinothieno[3,2-d]pyrimidin-6-yl)methyl)piperazine-1-carbonyl)dihydrothiophen-2(3H)-one]	0.1 to 1	0.1 to 1
COc1ncc(-c2ccc3nccc(-c4ccc(C(=O)N5C[C@@H]6C[C@H]5C(=O)O6)cc4)c3c2)cc1NS(=O)(=O)c1ccc(F)cc1F [XXV-13, 2,4-difluoro-N-(2-methoxy-5-(4-(4-((1S,4S)-3-oxo-2-oxa-5-azabicyclo[2.2.1]heptane-5-carbonyl)phenyl)quinolin-6-yl)pyridin-3-yl)benzenesulfonamide]	< 0.01	
C=CC(=O)Nc1ccc(-c2ccnc3ccc(-c4cnc(OC)c(NS(=O)(=O)c5ccc(F)cc5F)c4)cc23)cc1 [XXV-14, N-(4-(6-(5-(2,4-difluorophenylsulfonamido)-6-methoxypyridin-3-yl)quinolin-4-yl)phenyl) acrylamide]	< 0.01	
COc1ncc(-c2ccc3nccc(-c4ccc(C(=O)N5C[C@H]6C[C@@H]5C(=O)O6)cc4)c3c2)cc1NS(=O)(=O)c1ccc(F)cc1F [XXV-15, 2,4-difluoro-N-(2-methoxy-5-(4-(4-((1R,4R)-3-oxo-2-oxa-5-azabicyclo[2.2.1]heptane-5-carbonyl)phenyl)quinolin-6-yl)pyridin-3-yl)benzenesulfonamide]	< 0.01	
COc1c(OCCCC(=O)N2C[C@H]3C[C@@H]2C(=O)O3)ccc2c1N=C(NC(=O)c1cccnc1)N1CCN=C21 [XXVII-13, N-(7-methoxy-8-(4-oxo-4-((1R,4R)-3-oxo-2-oxa-5-azabicyclo[2.2.1]heptan-5-yl)butoxy)-2,3-dihydroimidazo[1,2-c]quinazolin-5-yl)nicotinamide]	0.1 to 1	
COc1c(OCCCC(=O)N2C[C@@H]3C[C@H]2C(=O)O3)ccc2c1N=C(NC(=O)c1cccnc1)N1CCN=C21 [XXVII-14, N-(7-methoxy-8-(4-oxo-4-((1S,4S)-3-oxo-2-oxa-5-azabicyclo[2.2.1]heptan-5-yl)butoxy)-2,3-dihydroimidazo[1,2-c]quinazolin-5-yl)nicotinamide]	0.1 to 1	
COc1ccc(C(=O)N2C[C@@H]3C[C@H]2C(=O)O3)cc1-n1c(CSc2ncnc3[nH]cnc23)nc2cccc(Cl)c2c1=O [XXXVII-1, (1S,4S)-5-(3-(2-((9H-purin-6-ylthio)methyl)-5-chloro-4-oxoquinazolin-3(4H)-yl)-4-methoxybenzoyl)-2-oxa-5-azabicyclo[2.2.1]heptan-3-one]	0.1 to 1	
COc1ccc(NC(=O)[C@H]2CCC(=O)O2)cc1-n1c(CSc2ncnc3[nH]cnc23)nc2cccc(Cl)c2c1=O [XXXVII-2, (R)-N-(3-(2-((9H-purin-6-ylthio)methyl)-5-chloro-4-oxoquinazolin-3(4H)-yl)-4-methoxyphenyl)-5-oxotetrahydrofuran-2-carboxamide]	0.1 to 1	
COc1ccc(NC(=O)[C@@H]2CCC(=O)O2)cc1-n1c(CSc2ncnc3[nH]cnc23)nc2cccc(Cl)c2c1=O [XXXVII-3, (S)-N-(3-(2-((9H-purin-6-ylthio)methyl)-5-chloro-4-oxoquinazolin-3(4H)-yl)-4-methoxyphenyl)-5-oxotetrahydrofuran-2-carboxamide]	0.1 to 1	
COc1ccc(NC(=O)N2C[C@@H]3C[C@H]2C(=O)O3)cc1-n1c(CSc2ncnc3[nH]cnc23)nc2cccc(Cl)c2c1=O [XXXVII-4, (1S,4S)-N-(3-(2-((9H-purin-6-ylthio)methyl)-5-chloro-4-oxoquinazolin-3(4H)-yl)-4-methoxyphenyl)-3-oxo-2-oxa-5-azabicyclo[2.2.1]heptane-5-carboxamide]	0.1 to 1	
